Reference: article PMC7570871, “Evaluation of a New ^177Lu-Labeled Somatostatin Analog for the Treatment of Tumors Expressing Somatostatin Receptor Subtypes 2 and 5” (Molecules, 2020)

Assays:
[1] = molecular target: T1, human SST2 (Homo sapiens, UniProt P30874); experiment: Competition binding assay with 125I-SS-14 on membranes of HEK-SST2 cells; conditions: 125I-SS-14 radioligand
T1 construct: expressed in transfected cells; host or cells: HEK cells (HEK-SST2), stably transfected
Description: (§1) Human Embryonic Kidney (HEK) cells were stably transfected with plasmids encoding the human SST2 and SST5 (HEK-SST2 and HEK-SST5) and cultivated as previously described. […] Nontransfected HEK cells were used as negative control.
(§2) Binding assays were performed as described previously.

[2] = molecular target: T2, human SST5 (Homo sapiens, UniProt P35346); experiment: Competition binding assay with 125I-SS-14 on membranes of HEK-SST5 cells; conditions: 125I-SS-14 radioligand
T2 construct: expressed in transfected cells; host or cells: HEK cells (HEK-SST5), stably transfected
Description: as §1, §2

T2 sequence (P35346 whole entry): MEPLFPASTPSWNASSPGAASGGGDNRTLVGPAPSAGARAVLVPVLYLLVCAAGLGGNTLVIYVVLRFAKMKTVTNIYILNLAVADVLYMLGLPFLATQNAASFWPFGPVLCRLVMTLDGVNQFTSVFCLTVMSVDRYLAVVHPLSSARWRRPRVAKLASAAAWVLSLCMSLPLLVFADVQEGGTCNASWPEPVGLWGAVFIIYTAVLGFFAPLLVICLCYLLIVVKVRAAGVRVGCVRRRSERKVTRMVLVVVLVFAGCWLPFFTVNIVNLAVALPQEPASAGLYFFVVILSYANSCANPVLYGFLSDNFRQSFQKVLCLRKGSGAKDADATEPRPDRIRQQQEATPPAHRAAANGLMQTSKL
T1 sequence (P30874 whole entry): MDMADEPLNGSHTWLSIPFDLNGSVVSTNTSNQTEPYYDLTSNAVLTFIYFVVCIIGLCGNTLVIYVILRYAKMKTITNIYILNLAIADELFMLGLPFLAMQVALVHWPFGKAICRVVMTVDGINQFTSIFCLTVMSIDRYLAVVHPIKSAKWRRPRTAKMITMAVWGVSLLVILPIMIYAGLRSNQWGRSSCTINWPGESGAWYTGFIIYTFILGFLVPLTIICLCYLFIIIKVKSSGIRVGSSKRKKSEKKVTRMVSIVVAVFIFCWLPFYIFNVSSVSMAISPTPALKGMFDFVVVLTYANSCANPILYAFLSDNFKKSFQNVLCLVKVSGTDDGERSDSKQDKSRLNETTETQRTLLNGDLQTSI

IC50 [1]: 0.51 nM | IC50 [2]: 4.8 nM
Structure (SMILES): C[C@@H](O)[C@@H]1NC(=O)[C@H](CCCCN)NC(=O)[C@@H](Cc2c[nH]c3ccccc23)NC(=O)[C@H](Cc2cccc3ccccc23)NC(=O)[C@@H](NC(=O)[C@@H](Cc2ccccc2)NC(=O)CN2CCN(CC(=O)O)CCN(CC(=O)O)CCN(CC(=O)O)CC2)CSSC[C@@H](C(=O)N[C@H](CO)[C@@H](C)O)NC1=O [^natLu-DOTA-NOC, metal not drawn, reference compound]
